Each block holds one compound with its values, some of them ahead of it.
What was measured:
CDK2/cyclin A = molecular target: T1, CDK2/cyclin A (Homo sapiens, UniProt P24941); assay: CDK protein inhibition, KINOMEscan (Eurofins), CDK2/cyclin A; format: binding; settings: 1 μM
T1 construct: purchased Eurofins Scientific

CDK2 = molecular target: T2, CDK2 (Homo sapiens, UniProt P24941); assay: CDK protein degradation activity (Western blotting), CDK2; format: cell-based; settings: MDA-MB-231 cells, 16 hours, Western blot
T2 construct: endogenous in cells; host or cells: MDA-MB-231
How it was run: (§1)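 Protein levels were read by Western blot densitometry, tubulin serving as loading reference. Beforehand, MDA-MB-231 cells had been exposed for 16 hours to 100 nM, 1 μM or 10 μM compound, DMSO as control.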

CDK9 = molecular target: T3, CDK9 (Homo sapiens, UniProt P50750); assay: CDK protein degradation activity (Western blotting), CDK9; format: cell-based; settings: MDA-MB-231 cells, 16 hours, Western blot
T3 construct: endogenous in cells; host or cells: MDA-MB-231
T3 sequence (P50750 whole entry): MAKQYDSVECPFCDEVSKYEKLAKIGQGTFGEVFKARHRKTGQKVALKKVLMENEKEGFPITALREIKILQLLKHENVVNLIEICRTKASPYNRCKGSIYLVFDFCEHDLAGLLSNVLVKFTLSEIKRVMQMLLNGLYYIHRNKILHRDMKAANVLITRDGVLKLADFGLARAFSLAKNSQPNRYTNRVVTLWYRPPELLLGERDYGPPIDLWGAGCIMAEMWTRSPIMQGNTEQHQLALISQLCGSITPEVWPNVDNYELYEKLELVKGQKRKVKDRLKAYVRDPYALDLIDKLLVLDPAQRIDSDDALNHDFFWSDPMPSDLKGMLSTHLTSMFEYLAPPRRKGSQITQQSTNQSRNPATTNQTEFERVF
How it was run: as §1

Compound: Cc1cccc(C(=O)NC2CC(n3cnc4c(NCC5CCN(C(=O)CCCCCNC(=O)CNc6cccc7c6C(=O)N([C@@H]6CCC(=O)NC6=O)C7=O)CC5)ncnc43)C2)n1 (stereo partly drawn) [Compound 2, N-((1r,3r)-3-(6-(((1-(6-(2-((2-(2,6-dioxopiperidin-3-yl)-1,3-dioxoisoindolin-4-yl)amino)acetamido)hexanoyl)piperidin-4-yl)methyl)amino)-9H-purin-9-yl)cyclobutyl)-6-methylpicolinamide]
CDK2/cyclin A inhibition (%) (at concentration of 1 μM) (CDK2/cyclin A): 84%

Compound: Cc1cccc(C(=O)NC2CC(n3cnc4c(NC5CCN(C(=O)CCCCCNC(=O)COc6ccc7c(c6)C(=O)N([C@@H]6CCC(=O)NC6=O)C7=O)CC5)ncnc43)C2)n1 (stereo partly drawn) [Compound 3, N-((1r,3r)-3-(6-((1-(6-(2-((2-(2,6-dioxopiperidin-3-yl)-1,3-dioxoisoindolin-5-yl)oxy)acetamido)hexanoyl)piperidin-4-yl)amino)-9H-purin-9-yl)cyclobutyl)-6-methylpicolinamide]
CDK2/cyclin A inhibition (%) (at concentration of 1 μM) (CDK2/cyclin A): 84%

Compound: Cc1cccc(C(=O)NC2CC(n3cnc4c(NC5CCN(C(=O)CCCCCNC(=O)COc6cccc7c6C(=O)N([C@@H]6CCC(=O)NC6=O)C7=O)CC5)ncnc43)C2)n1 (stereo partly drawn) [Compound 4, N-((1r,3r)-3-(6-((1-(6-(2-((2-(2,6-dioxopiperidin-3-yl)-1,3-dioxoisoindolin-4-yl)oxy)acetamido)hexanoyl)piperidin-4-yl)amino)-9H-purin-9-yl)cyclobutyl)-6-methylpicolinamide]
CDK2/cyclin A inhibition (%) (at concentration of 1 μM) (CDK2/cyclin A): 84%

Compound: Cc1cccc(C(=O)NC2CC(n3cnc4c(NC5CCN(C(=O)CCCCCNc6cccc7c6C(=O)N([C@@H]6CCC(=O)NC6=O)C7=O)CC5)ncnc43)C2)n1 (stereo partly drawn) [Compound 6, N-((1r,3r)-3-(6-((1-(6-((2-(2,6-dioxopiperidin-3-yl)-1,3-dioxoisoindolin-4-yl)amino)hexanoyl)piperidin-4-yl)amino)-9H-purin-9-yl)cyclobutyl)-6-methylpicolinamide]
CDK2/cyclin A inhibition (%) (at concentration of 1 μM) (CDK2/cyclin A): 88%

Compound: Cc1cccc(C(=O)NC2CC(n3cnc4c(NC5CCN(C(=O)COCCOCCNC(=O)COc6ccc7c(c6)C(=O)N([C@H]6CCC(=O)NC6=O)C7=O)CC5)ncnc43)C2)n1 (stereo partly drawn) [Compound 7, N-((1s,3s)-3-(6-((1-(2-(2-(2-(2-((2-(2,6-dioxopiperidin-3-yl)-1,3-dioxoisoindolin-5-yl)oxy)acetamido)ethoxy)ethoxy)acetyl)piperidin-4-yl)amino)-9H-purin-9-yl)cyclobutyl)-6-methylpicolinamide]
CDK2/cyclin A inhibition (%) (at concentration of 1 μM) (CDK2/cyclin A): 94%

Compound: Cc1cccc(C(=O)NC2CC(n3cnc4c(NC5CCN(C(=O)COCCOCCNC(=O)COc6cccc7c6C(=O)N([C@H]6CCC(=O)NC6=O)C7=O)CC5)ncnc43)C2)n1 (stereo partly drawn) [Compound 8, N-((1s,3s)-3-(6-((1-(2-(2-(2-(2-((2-(2,6-dioxopiperidin-3-yl)-1,3-dioxoisoindolin-4-yl)oxy)acetamido)ethoxy)ethoxy)acetyl)piperidin-4-yl)amino)-9H-purin-9-yl)cyclobutyl)-6-methylpicolinamide]
CDK2/cyclin A inhibition (%) (at concentration of 1 μM) (CDK2/cyclin A): 89%

Compound: Cc1cccc(C(=O)NC2CC(n3cnc4c(NC5CCN(C(=O)COCCOCCNC(=O)CNc6cccc7c6C(=O)N([C@H]6CCC(=O)NC6=O)C7=O)CC5)ncnc43)C2)n1 (stereo partly drawn) [Compound 10, N-((1s,3s)-3-(6-((1-(2-(2-(2-(2-((2-(2,6-dioxopiperidin-3-yl)-1,3-dioxoisoindolin-4-yl)amino)acetamido)ethoxy)ethoxy)acetyl)piperidin-4-yl)amino)-9H-purin-9-yl)cyclobutyl)-6-methylpicolinamide]
CDK2/cyclin A inhibition (%) (at concentration of 1 μM) (CDK2/cyclin A): 90%

Compound: Cc1cccc(C(=O)NC2CC(n3cnc4c(NC5CCN(C(=O)COCCOCCNc6cccc7c6C(=O)N([C@H]6CCC(=O)NC6=O)C7=O)CC5)ncnc43)C2)n1 (stereo partly drawn) [Compound 12, N-((1s,3s)-3-(6-((1-(2-(2-(2-((2-(2,6-dioxopiperidin-3-yl)-1,3-dioxoisoindolin-4-yl)amino)ethoxy)ethoxy)acetyl)piperidin-4-yl)amino)-9H-purin-9-yl)cyclobutyl)-6-methylpicolinamide]
CDK2/cyclin A inhibition (%) (at concentration of 1 μM) (CDK2/cyclin A): 86%

Compound: Cc1cccc(C(=O)NC2CC(n3cnc4c(NCC5CCN(C(=O)CCCCCNC(=O)CNc6cccc7c6C(=O)N([C@@H]6CCC(=O)NC6=O)C7=O)CC5)ncnc43)C2)n1 (stereo partly drawn) [Compound 62, N-((1r,3r)-3-(6-(((1-(6-(2-((2-(2,6-dioxopiperidin-3-yl)-1,3-dioxoisoindolin-4-yl)amino)acetamido)hexanoyl)piperidin-4-yl)methyl)amino)-9H-purin-9-yl)cyclobutyl)-6-methylpicolinamide]
CDK2/cyclin A inhibition (%) (at concentration of 1 μM) (CDK2/cyclin A): 89%

Compound: N-((1s,3s)-3-(6-((4-(4-(2-(1-(1-(2-(2,6-dioxopiperidin-3-yl)-1,3-dioxoisoindolin-5-yl)piperidin-4-carbonyl)piperidin-4-yl)ethyl)piperazin-1-yl)phenyl)amino)-9H-purin-9-yl)cyclobutyl)-2-phenylacetamide [Compound 404]
Enzyme degradation CDK2 (% remaining) @ 0.1 μM (CDK2): 50/50/50%
Enzyme degradation CDK2 (% remaining) @ 1 μM (CDK2): 50/50/50%
Enzyme degradation CDK2 (% remaining) @ 10 μM (CDK2): 50/50/50%
Enzyme degradation CDK9 (% remaining) @ 0.1 μM (CDK9): 0/0/0%
Enzyme degradation CDK9 (% remaining) @ 1 μM (CDK9): 0/0/0%
Enzyme degradation CDK9 (% remaining) @ 10 μM (CDK9): 0/0/0%

Continued, values first:

CDK2/cyclin A inhibition (%) (at concentration of 1 μM) (CDK2/cyclin A): 77%
Compound: Cc1cccc(C(=O)NC2CC(n3cnc4c(NC5CCN(C(=O)CCCCCNC(=O)CNc6cccc7c6C(=O)N([C@@H]6CCC(=O)NC6=O)C7=O)CC5)ncnc43)C2)n1 (stereo partly drawn) [Compound 1, N-((1r,3r)-3-(6-((1-(6-(2-((2-(2,6-dioxopiperidin-3-yl)-1,3-dioxoisoindolin-4-yl)amino)acetamido)hexanoyl)piperidin-4-yl)amino)-9H-purin-9-yl)cyclobutyl)-6-methylpicolinamide]

CDK2/cyclin A inhibition (%) (at concentration of 1 μM) (CDK2/cyclin A): 91%
Compound: Cc1cccc(C(=O)NC2CC(n3cnc4c(NC5CCN(C(=O)CCCCCNc6ccc7c(c6)C(=O)N([C@@H]6CCC(=O)NC6=O)C7=O)CC5)ncnc43)C2)n1 (stereo partly drawn) [Compound 5, N-((1r,3r)-3-(6-((1-(6-((2-(2,6-dioxopiperidin-3-yl)-1,3-dioxoisoindolin-5-yl)amino)hexanoyl)piperidin-4-yl)amino)-9H-purin-9-yl)cyclobutyl)-6-methylpicolinamide]

CDK2/cyclin A inhibition (%) (at concentration of 1 μM) (CDK2/cyclin A): 92%
Compound: Cc1cccc(C(=O)NC2CC(n3cnc4c(NC5CCN(C(=O)COCCOCCNC(=O)CNc6ccc7c(c6)C(=O)N([C@H]6CCC(=O)NC6=O)C7=O)CC5)ncnc43)C2)n1 (stereo partly drawn) [Compound 9, N-((1s,3s)-3-(6-((1-(2-(2-(2-(2-((2-(2,6-dioxopiperidin-3-yl)-1,3-dioxoisoindolin-5-yl)amino)acetamido)ethoxy)ethoxy)acetyl)piperidin-4-yl)amino)-9H-purin-9-yl)cyclobutyl)-6-methylpicolinamide]

CDK2/cyclin A inhibition (%) (at concentration of 1 μM) (CDK2/cyclin A): 78%
Compound: Cc1cccc(C(=O)NC2CC(n3cnc4c(NC5CCN(C(=O)COCCOCCNc6ccc7c(c6)C(=O)N([C@H]6CCC(=O)NC6=O)C7=O)CC5)ncnc43)C2)n1 (stereo partly drawn) [Compound 11, N-((1s,3s)-3-(6-((1-(2-(2-(2-((2-(2,6-dioxopiperidin-3-yl)-1,3-dioxoisoindolin-5-yl)amino)ethoxy)ethoxy)acetyl)piperidin-4-yl)amino)-9H-purin-9-yl)cyclobutyl)-6-methylpicolinamide]

CDK2/cyclin A inhibition (%) (at concentration of 1 μM) (CDK2/cyclin A): 83%
Compound: Cc1cccc(C(=O)NC2CC(n3cnc4c(NCC5CCN(C(=O)CCCCCNC(=O)COc6ccc7c(c6)C(=O)N([C@@H]6CCC(=O)NC6=O)C7=O)CC5)ncnc43)C2)n1 (stereo partly drawn) [Compound 63, N-((1r,3r)-3-(6-(((1-(6-(2-((2-(2,6-dioxopiperidin-3-yl)-1,3-dioxoisoindolin-5-yl)oxy)acetamido)hexanoyl)piperidin-4-yl)methyl)amino)-9H-purin-9-yl)cyclobutyl)-6-methylpicolinamide]

CDK2/cyclin A inhibition (%) (at concentration of 1 μM) (CDK2/cyclin A): 85%
Compound: Cc1cccc(C(=O)NC2CC(n3cnc4c(NCC5CCN(C(=O)CCCCCNC(=O)COc6cccc7c6C(=O)N([C@@H]6CCC(=O)NC6=O)C7=O)CC5)ncnc43)C2)n1 (stereo partly drawn) [Compound 64, N-((1r,3r)-3-(6-(((1-(6-(2-((2-(2,6-dioxopiperidin-3-yl)-1,3-dioxoisoindolin-4-yl)oxy)acetamido)hexanoyl)piperidin-4-yl)methyl)amino)-9H-purin-9-yl)cyclobutyl)-6-methylpicolinamide]

Enzyme degradation CDK2 (% remaining) @ 0.1 μM (CDK2): 50%
Enzyme degradation CDK2 (% remaining) @ 1 μM (CDK2): 60%
Enzyme degradation CDK2 (% remaining) @ 10 μM (CDK2): 60%
Enzyme degradation CDK9 (% remaining) @ 0.1 μM (CDK9): 30%
Enzyme degradation CDK9 (% remaining) @ 1 μM (CDK9): 20%
Enzyme degradation CDK9 (% remaining) @ 10 μM (CDK9): 20%
Compound: O=C1CC[C@H](N2C(=O)c3ccc(N4CCN(CC=CCN5CCC6(CC5)CC(N5CCN(c7ccc(Nc8ncnc9c8ncn9C8CC(NC(=O)Cc9ccccc9)C8)cc7)CC5)C6)CC4)cc3C2=O)C(=O)N1 (stereo partly drawn) [Compound 479, N-((1s,3s)-3-(6-((4-(4-(7-(4-(4-(2-(2,6-dioxopiperidin-3-yl)-1,3-dioxoisoindolin-5-yl)piperazin-1-yl)but-2-en-1-yl)-7-azaspiro[3.5]nonan-2-yl)piperazin-1-yl)phenyl)amino)-9H-purin-9-yl)cyclobutyl)-2-phenylacetamide]

Enzyme degradation CDK2 (% remaining) @ 0.1 μM (CDK2): 20%
Enzyme degradation CDK2 (% remaining) @ 1 μM (CDK2): 0%
Enzyme degradation CDK2 (% remaining) @ 10 μM (CDK2): 0%
Enzyme degradation CDK9 (% remaining) @ 0.1 μM (CDK9): 10/10/10%
Enzyme degradation CDK9 (% remaining) @ 1 μM (CDK9): 10/10/10%
Enzyme degradation CDK9 (% remaining) @ 10 μM (CDK9): 10/10/10%
Compound: N-((1s,3s)-3-(6-((4-(4-(3-(4-(1-(2-(2,6-dioxopiperidin-3-yl)-1,3-dioxoisoindolin-5-yl)azetidin-3-carbonyl)piperazin-1-yl)propyl)piperidin-1-yl)phenyl)amino)-9H-purin-9-yl)cyclobutyl)-2-phenylacetamide [Compound 366]

— US20260125382A1, “COMPOUNDS FOR INHIBITING OR DEGRADING CDK2 AND/OR CDK9 AND MEDICINAL USE THEREOF” (KOREA RESEARCH INSTITUTE OF CHEMICAL TECHNOLOGY, priority 2022, published 2026)
